This is an account of results in ChEMBL document CHEMBL1909046, “DrugMatrix in vitro pharmacology data”.

pIC50, pKi: −log10 of the molar value.

Test [1] addresses Sodium-dependent dopamine transporter (Homo sapiens, UniProt Q01959). Briefly: DRUGMATRIX: Dopamine Transporter radioligand binding (ligand: [125I] RTI-55). To be noted: cho-k1; Not Active = under 50% inhibition at 10 µM. It counts as cell membranes, CHO-K1, Membrane.
Test [2] is described as follows: DRUGMATRIX: Nicotinic Acetylcholine radioligand binding (ligand: [125I] Epibatidine). The conditions noted are these: imr-32; Not Active = under 50% inhibition at 10 µM. It counts as cell membranes, Membrane.
Another test deals with T1, Adenosine receptor A3 (Homo sapiens, UniProt P0DMS8).
T1 sequence (P0DMS8 whole entry): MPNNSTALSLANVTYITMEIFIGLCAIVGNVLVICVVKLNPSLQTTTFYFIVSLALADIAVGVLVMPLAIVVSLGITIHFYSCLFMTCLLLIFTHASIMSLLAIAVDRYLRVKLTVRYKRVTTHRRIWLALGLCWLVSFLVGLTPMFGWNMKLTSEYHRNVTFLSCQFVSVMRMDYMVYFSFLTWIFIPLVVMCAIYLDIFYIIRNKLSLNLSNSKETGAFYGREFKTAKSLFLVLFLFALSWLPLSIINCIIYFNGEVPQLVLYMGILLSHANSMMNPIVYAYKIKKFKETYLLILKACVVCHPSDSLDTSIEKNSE
It counts as cell membranes, CHO-K1, Membrane. To be noted: cho-k1.

For a further test, the target named is Vasopressin V1a receptor (Homo sapiens, UniProt P37288). It counts as cell membranes, Membrane. The conditions noted are these: hek293. Further: in other assays of this panel Not Active means under 50% inhibition at 10 µM.
The target in a further test is Cannabinoid receptor 1 (Homo sapiens, UniProt P21554). It counts as cell membranes, Chem-1, Membrane. The conditions noted are these: chem-1. Further: in other assays of this panel Not Active means under 50% inhibition at 10 µM.
A further test has as its target T2, B2 bradykinin receptor (Homo sapiens, UniProt P30411). Further: in other assays of this panel Not Active means under 50% inhibition at 10 µM.
T2 sequence (P30411 whole entry): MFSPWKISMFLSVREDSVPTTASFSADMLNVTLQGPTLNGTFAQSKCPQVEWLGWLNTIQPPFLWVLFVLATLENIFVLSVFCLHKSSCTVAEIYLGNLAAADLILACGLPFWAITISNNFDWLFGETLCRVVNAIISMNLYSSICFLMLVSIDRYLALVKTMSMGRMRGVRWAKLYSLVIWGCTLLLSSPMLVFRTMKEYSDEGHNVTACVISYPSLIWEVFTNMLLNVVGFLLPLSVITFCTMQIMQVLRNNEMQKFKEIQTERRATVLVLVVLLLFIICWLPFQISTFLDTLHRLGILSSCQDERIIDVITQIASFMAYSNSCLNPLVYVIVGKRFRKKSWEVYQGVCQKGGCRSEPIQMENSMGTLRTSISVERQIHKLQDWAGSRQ
It counts as cell membranes, Membrane. The conditions noted are these: chem-1.

The target of a further test is Melanocortin receptor 3 (Homo sapiens, UniProt P41968). The format is cell membranes, Membrane. The conditions noted are these: hek293. Further: in other assays of this panel Not Active means under 50% inhibition at 10 µM.
Melanocortin receptor 3, sequence (P41968 whole entry): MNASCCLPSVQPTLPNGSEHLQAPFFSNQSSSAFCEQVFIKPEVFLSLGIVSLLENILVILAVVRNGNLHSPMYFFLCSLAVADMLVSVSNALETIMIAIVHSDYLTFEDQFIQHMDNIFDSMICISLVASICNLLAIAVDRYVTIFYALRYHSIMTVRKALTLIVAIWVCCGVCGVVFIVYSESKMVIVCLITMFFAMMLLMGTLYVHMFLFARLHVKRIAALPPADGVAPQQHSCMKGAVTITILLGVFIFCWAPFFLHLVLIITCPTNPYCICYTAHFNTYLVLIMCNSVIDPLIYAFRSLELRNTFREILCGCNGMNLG

Cannabinoid receptor 1, sequence (P21554 whole entry): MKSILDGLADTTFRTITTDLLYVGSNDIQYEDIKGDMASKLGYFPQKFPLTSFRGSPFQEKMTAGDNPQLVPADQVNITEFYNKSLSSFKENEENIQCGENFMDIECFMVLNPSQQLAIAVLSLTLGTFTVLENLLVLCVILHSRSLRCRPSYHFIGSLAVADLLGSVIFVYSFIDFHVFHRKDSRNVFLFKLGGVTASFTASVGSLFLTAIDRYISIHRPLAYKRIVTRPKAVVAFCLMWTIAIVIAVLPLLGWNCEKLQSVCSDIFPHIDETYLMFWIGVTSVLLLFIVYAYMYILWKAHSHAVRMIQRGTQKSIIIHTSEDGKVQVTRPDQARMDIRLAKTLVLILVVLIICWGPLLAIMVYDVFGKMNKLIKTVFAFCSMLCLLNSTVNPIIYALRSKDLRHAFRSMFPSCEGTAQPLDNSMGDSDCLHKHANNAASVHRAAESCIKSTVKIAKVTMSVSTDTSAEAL
Vasopressin V1a receptor, sequence (P37288 whole entry): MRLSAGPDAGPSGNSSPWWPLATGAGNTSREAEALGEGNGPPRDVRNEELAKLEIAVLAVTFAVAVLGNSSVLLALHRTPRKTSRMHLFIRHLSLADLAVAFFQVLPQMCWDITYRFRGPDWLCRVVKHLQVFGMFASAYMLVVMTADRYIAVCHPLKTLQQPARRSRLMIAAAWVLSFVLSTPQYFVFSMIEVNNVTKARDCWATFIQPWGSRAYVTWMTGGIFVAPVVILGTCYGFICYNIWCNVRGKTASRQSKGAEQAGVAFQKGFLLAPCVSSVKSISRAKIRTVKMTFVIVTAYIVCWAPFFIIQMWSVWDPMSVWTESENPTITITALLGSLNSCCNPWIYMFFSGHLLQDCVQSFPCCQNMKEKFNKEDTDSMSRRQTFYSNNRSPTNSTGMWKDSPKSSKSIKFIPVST
Sodium-dependent dopamine transporter, sequence (Q01959 whole entry): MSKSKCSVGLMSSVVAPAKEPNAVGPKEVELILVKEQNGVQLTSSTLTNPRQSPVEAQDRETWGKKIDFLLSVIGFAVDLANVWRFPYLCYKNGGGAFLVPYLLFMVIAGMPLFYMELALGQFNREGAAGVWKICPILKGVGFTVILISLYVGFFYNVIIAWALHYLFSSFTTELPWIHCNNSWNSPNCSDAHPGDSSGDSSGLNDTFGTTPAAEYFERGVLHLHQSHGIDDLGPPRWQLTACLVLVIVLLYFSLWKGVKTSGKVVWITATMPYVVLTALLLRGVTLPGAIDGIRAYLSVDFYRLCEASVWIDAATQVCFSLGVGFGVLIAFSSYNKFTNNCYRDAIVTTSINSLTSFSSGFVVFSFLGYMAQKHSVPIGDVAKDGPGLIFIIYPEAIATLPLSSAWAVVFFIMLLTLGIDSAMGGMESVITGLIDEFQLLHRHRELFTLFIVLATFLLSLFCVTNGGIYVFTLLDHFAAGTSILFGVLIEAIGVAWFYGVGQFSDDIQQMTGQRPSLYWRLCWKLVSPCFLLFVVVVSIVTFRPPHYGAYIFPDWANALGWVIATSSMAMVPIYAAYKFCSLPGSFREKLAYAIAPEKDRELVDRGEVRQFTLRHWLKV

As to `CCN(CC)CCCC(C)Nc1c2ccc(Cl)cc2nc2ccc(OC)cc12` (stereo not given) [QUINACRINE], the IC50 entry (in test [1]; in test [2]; against Adenosine receptor A3; on Vasopressin V1a receptor; against Cannabinoid receptor 1; against B2 bradykinin receptor) was “Not Active” in each case. For the same molecule, the IC50 result against Melanocortin receptor 3 is given as “Not Active”. In addition, the Ki result in test [2] is reported as “Not Active”.
Regarding `C[C@]12C=CC(=O)C=C1CC[C@H]1[C@@H]3C[C@@H](O)[C@](O)(C(=O)CO)[C@@]3(C)C[C@H](O)[C@@]12F` [TRIAMCINOLONE], the IC50 entry (in test [1]; in test [2]; against Adenosine receptor A3; at Vasopressin V1a receptor; against Cannabinoid receptor 1; on B2 bradykinin receptor) was “Not Active” each time. In addition, the IC50 result on Melanocortin receptor 3 is recorded as “Not Active”. In addition, the Ki entry in test [2] is “Not Active”.
As to `CC[C@]1(O)C[C@@H]2CN(CCc3c([nH]c4ccccc34)[C@@](C(=O)OC)(c3cc4c(cc3OC)N(C)[C@H]3[C@@](O)(C(N)=O)[C@H](O)[C@]5(CC)C=CCN6CC[C@]43[C@@H]65)C2)C1` [VINDESINE], the IC50 result (in test [1]; in test [2]; against Adenosine receptor A3; against Vasopressin V1a receptor; against Cannabinoid receptor 1; against B2 bradykinin receptor) was “Not Active” each time. Also, the IC50 entry against Melanocortin receptor 3 is given as “Not Active”. The Ki result in test [2] is reported as “Not Active”.
Consider `CCN(C(C)=O)c1cccc(-c2ccnc3c(C#N)cnn23)c1` [ZALEPLON], for which the IC50 result (in test [1]; in test [2]; against Adenosine receptor A3; at Vasopressin V1a receptor; against Cannabinoid receptor 1; against B2 bradykinin receptor) was “Not Active” each time. For the same molecule, the IC50 result at Melanocortin receptor 3 was “Not Active”. The Ki entry in test [2] is given as “Not Active”.
Consider COBALTOUS CHLORIDE, for which the IC50 entry (in test [1]; in test [2]; against Adenosine receptor A3; on Vasopressin V1a receptor; at Cannabinoid receptor 1; against B2 bradykinin receptor) was “Not Active” throughout. Moreover, the IC50 result on Melanocortin receptor 3 is given as “Not Active”. Further, the Ki result (in test [1]; in test [2]; at Adenosine receptor A3; at Vasopressin V1a receptor; on Cannabinoid receptor 1; at B2 bradykinin receptor) was “Not Active” throughout. For the same molecule, on Melanocortin receptor 3, the Ki entry is recorded as “Not Active”.
Turning to COLISTIN, the IC50 entry (in test [1]; in test [2]; at Adenosine receptor A3; against Vasopressin V1a receptor; against Cannabinoid receptor 1; against B2 bradykinin receptor) was “Not Active” throughout. Besides, the Ki entry (in test [1]; in test [2]; at Adenosine receptor A3; at Vasopressin V1a receptor; on Cannabinoid receptor 1; at B2 bradykinin receptor) was “Not Active” throughout. In addition, the pIC50 on Melanocortin receptor 3 (read-out: IC50) was 6.71. The pKi at Melanocortin receptor 3 (read-out: Ki) was 6.77.

As usually defined, the pIC50 is the negative decadic logarithm of the IC50, by convention in mol/L. Broadly, the pKi is the Ki on a negative log10 scale, so that one unit is a factor of ten.
